Experimental data as given in patent US12599136B2, “Substituted isophthalic acid diamides and their use as herbicides” (Bayer Aktiengesellschaft, priority 2020, dated 2026).

Key:
Type in all cases: in vivo
[1] = system: Pharbitis purpurea; test: Pre-emergence herbicidal action against PHBPU; conditions: visual score after 3 weeks vs untreated controls
In short: (§1)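 Pre-emergence soil-surface spray of formulated compound (WP or EC; 600 to 800 l/ha; 0.2% wetting agent) over seeds sown in sandy loam. After 3 weeks under greenhouse conditions, damage is estimated visually in percent against untreated plants.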

[2] = system: Setaria viridis; test: Post-emergence herbicidal action against SETVI; conditions: visual assessment about 3 weeks after treatment
In short: (§2)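 Greenhouse plants in sandy loam were sprayed at the one-leaf stage, 2 to 3 weeks after sowing, with WP or EC formulations as aqueous suspension or emulsion (600 to 800 l/ha water, 0.2% wetting agent). Visual damage was scored about 3 weeks later versus untreated controls, 0% = like control, 100% = dead.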

[3] = system: Viola tricolor; test: Post-emergence herbicidal action against VIOTR
In short: as §2

[4] = system: Echinochloa crus-galli; test: Pre-emergence herbicidal action against ECHCG; conditions: visual score after 3 weeks vs untreated controls
In short: as §1

[5] = system: Alopecurus myosuroides; test: Pre-emergence herbicidal action against ALOMY; conditions: visual score after 3 weeks vs untreated controls
In short: as §1

[6] = system: Amaranthus retroflexus; test: Post-emergence herbicidal action against AMARE; conditions: visual assessment about 3 weeks after treatment
In short: as §2

[7] = system: Viola tricolor; test: Pre-emergence herbicidal action against VIOTR
In short: as §1

[8] = system: Abutilon theophrasti; test: Post-emergence herbicidal action against ABUTH
In short: as §2

[9] = system: Pharbitis purpurea; test: Post-emergence herbicidal action against PHBPU; conditions: visual assessment about 3 weeks after treatment
In short: as §2

[10] = system: Avena fatua; test: Pre-emergence herbicidal action against AVEFA; conditions: visual score after 3 weeks vs untreated controls
In short: as §1

[11] = system: Alopecurus myosuroides; test: Post-emergence herbicidal action against ALOMY
In short: as §2

[12] = system: Stellaria media; test: Post-emergence herbicidal action against STEME; conditions: visual assessment about 3 weeks after treatment
In short: as §2

[13] = system: Lolium rigidum; test: Pre-emergence herbicidal action against LOLRI; conditions: 320 g/ha
In short: as §1

[14] = system: Cyperus esculentus; test: Post-emergence herbicidal action against CYPES; conditions: 80 g/ha, visual assessment about 3 weeks after treatment
In short: as §2

[15] = system: Matricaria inodora; test: Pre-emergence herbicidal action against MATIN; conditions: visual score after 3 weeks vs untreated controls
In short: as §1

[16] = system: Matricaria inodora; test: Post-emergence herbicidal action against MATIN; conditions: visual assessment about 3 weeks after treatment
In short: as §2

[17] = system: Veronica persica; test: Post-emergence herbicidal action against VERPE; conditions: 80 g/ha, visual assessment about 3 weeks after treatment
In short: as §2

[18] = system: Amaranthus retroflexus; test: Pre-emergence herbicidal action against AMARE; conditions: visual score after 3 weeks vs untreated controls
In short: as §1

[19] = system: Hordeum murinum; test: Pre-emergence herbicidal action against HORMU; conditions: visual score after 3 weeks vs untreated controls
In short: as §1

[20] = system: Cyperus esculentus; test: Pre-emergence herbicidal action against CYPES; conditions: visual score after 3 weeks vs untreated controls
In short: as §1

[21] = system: Setaria viridis; test: Pre-emergence herbicidal action against SETVI
In short: as §1

[22] = system: Hordeum murinum; test: Post-emergence herbicidal action against HORMU
In short: as §2

[23] = system: Veronica persica; test: Pre-emergence herbicidal action against VERPE; conditions: 320 g/ha
In short: as §1

[24] = system: Stellaria media; test: Pre-emergence herbicidal action against STEME
In short: as §1

[25] = system: Echinochloa crus-galli; test: Post-emergence herbicidal action against ECHCG; conditions: visual assessment about 3 weeks after treatment
In short: as §2

[26] = system: Polygonum convolvulus; test: Pre-emergence herbicidal action against POLCO; conditions: 320 g/ha
In short: as §1

[27] = system: Abutilon theophrasti; test: Pre-emergence herbicidal action against ABUTH; conditions: visual score after 3 weeks vs untreated controls
In short: as §1

[28] = system: Polygonum convolvulus; test: Post-emergence herbicidal action against POLCO; conditions: 80 g/ha, visual assessment about 3 weeks after treatment
In short: as §2

[29] = system: Avena fatua; test: Post-emergence herbicidal action against AVEFA; conditions: visual assessment about 3 weeks after treatment
In short: as §2

[30] = system: Lolium rigidum; test: Post-emergence herbicidal action against LOLRI
In short: as §2

## CCN(C)C(=O)c1c(C(F)(F)F)ccc(C(=O)Nc2nnnn2CC)c1Cl [Example 2-124]
[1]; 80 g/ha
  Pre-emergence action against PHBPU: 80%
[1]; 320 g/ha
  Pre-emergence action against PHBPU: 90%
[2]; 5 g/ha
  Post-emergence action against SETVI in %: 100%
[2]; 20 g/ha
  Post-emergence action against SETVI in %: 100%
[2]; 80 g/ha
  Post-emergence action against SETVI in %: 100%
[3]; 5 g/ha
  Post-emergence action against VIOTR in %: 100%
[3]; 20 g/ha
  Post-emergence action against VIOTR in %: 100%
[3]; 80 g/ha
  Post-emergence action against VIOTR in %: 100%
[4]; 80 g/ha
  Pre-emergence action against ECHCG: 90%
[4]; 320 g/ha
  Pre-emergence action against ECHCG: 100%
[5]; 80 g/ha
  Pre-emergence action against ALOMY: 80%
[5]; 320 g/ha
  Pre-emergence action against ALOMY: 90%
[6]; 5 g/ha
  Post-emergence action against AMARE in %: 100%
[6]; 20 g/ha
  Post-emergence action against AMARE in %: 100%
[6]; 80 g/ha
  Post-emergence action against AMARE in %: 100%
[7]; 20 g/ha
  Pre-emergence action against VIOTR: 80%
[7]; 80 g/ha
  Pre-emergence action against VIOTR: 80%
[7]; 320 g/ha
  Pre-emergence action against VIOTR: 100%
[8]; 5 g/ha
  Post-emergence action against ABUTH: 100%
[8]; 20 g/ha
  Post-emergence action against ABUTH: 100%
[8]; 80 g/ha
  Post-emergence action against ABUTH: 100%
[9]; 5 g/ha
  Post-emergence action against PHBPU in %: 80%
[9]; 20 g/ha
  Post-emergence action against PHBPU in %: 90%
[9]; 80 g/ha
  Post-emergence action against PHBPU in %: 90%
[10]; 80 g/ha
  Pre-emergence action against AVEFA: 90%
[10]; 320 g/ha
  Pre-emergence action against AVEFA: 100%
[11]; 5 g/ha
  Post-emergence action against ALOMY: 90%
[11]; 20 g/ha
  Post-emergence action against ALOMY: 100%
[11]; 80 g/ha
  Post-emergence action against ALOMY: 100%
[12]; 5 g/ha
  Post-emergence action against STEME in %: 100%
[12]; 20 g/ha
  Post-emergence action against STEME in %: 100%
[12]; 80 g/ha
  Post-emergence action against STEME in %: 100%
[13]
  Pre-emergence action against LOLRI: 90%
[14]
  Post-emergence action against CYPES in %: 90%
[15]; 20 g/ha
  Pre-emergence action against MATIN: 80%
[15]; 80 g/ha
  Pre-emergence action against MATIN: 90%
[15]; 320 g/ha
  Pre-emergence action against MATIN: 100%
[16]; 5 g/ha
  Post-emergence action against MATIN in %: 90%
[16]; 20 g/ha
  Post-emergence action against MATIN in %: 100%
[16]; 80 g/ha
  Post-emergence action against MATIN in %: 100%
[17]
  Post-emergence action against VERPE in %: 100%
[18]; 20 g/ha
  Pre-emergence action against AMARE: 90%
[18]; 80 g/ha
  Pre-emergence action against AMARE: 100%
[18]; 320 g/ha
  Pre-emergence action against AMARE: 100%
[19]; 80 g/ha
  Pre-emergence action against HORMU: 80%
[19]; 320 g/ha
  Pre-emergence action against HORMU: 90%
[20]; 20 g/ha
  Pre-emergence action against CYPES: 100%
[20]; 80 g/ha
  Pre-emergence action against CYPES: 100%
[20]; 320 g/ha
  Pre-emergence action against CYPES: 100%
[21]; 20 g/ha
  Pre-emergence action against SETVI: 90%
[21]; 80 g/ha
  Pre-emergence action against SETVI: 100%
[21]; 320 g/ha
  Pre-emergence action against SETVI: 100%
[22]; 20 g/ha
  Post-emergence action against HORMU in %: 90%
[22]; 80 g/ha
  Post-emergence action against HORMU in %: 100%
[23]
  Pre-emergence action against VERPE: 100%
[24]; 20 g/ha
  Pre-emergence action against STEME: 90%
[24]; 80 g/ha
  Pre-emergence action against STEME: 90%
[24]; 320 g/ha
  Pre-emergence action against STEME: 90%
[25]; 20 g/ha
  Post-emergence action against ECHCG in %: 100%
[25]; 80 g/ha
  Post-emergence action against ECHCG in %: 100%
[26]
  Pre-emergence action against POLCO: 80%
[27]; 20 g/ha
  Pre-emergence action against ABUTH: 100%
[27]; 80 g/ha
  Pre-emergence action against ABUTH: 100%
[27]; Dosage column 320 g/ha (heading prints 3200 g/ha)
  Pre-emergence action against ABUTH: 100%
[28]
  Post-emergence action against POLCO in %: 100%
[29]; 5 g/ha
  Post-emergence action against AVEFA in %: 80%
[29]; 20 g/ha
  Post-emergence action against AVEFA in %: 100%
[29]; 80 g/ha
  Post-emergence action against AVEFA in %: 100%
[30]; 20 g/ha
  Post-emergence action against LOLRI in %: 90%
[30]; 80 g/ha
  Post-emergence action against LOLRI in %: 100%
